Data: US7365069B2, “Pyrimidone derivatives” (Bexel Pharmaceuticals Inc., priority 2002, dated 2008)

Legend:
TNF-α = TNF-α production in LPS-stimulated human whole blood; format: cell-based; conditions: 1 μM, LPS 4 h
Description: Tumor Necrosis Factor Alpha (TNF-α)
This assay determines the effect of test compounds on the production of TNF-α in human whole blood. TNF-α assay is carried out as described by Armin hatzelmann and Christian Schudt (J Pharm Exp Ther 297, 261, 2001). Compounds are tested for their ability to inhibit the activity of TNF-α in human whole blood. The test compounds are pre-incubated for 15 minutes at 37° C. and then stimulated with Lipopolysaccharide (Salmonella abortus equi, 1 μg/ml) for 4 h at 37° C. in 5% CO2. The levels of TNF-α are estimated using Enzyme linked Immunosorbent assay performed in a 96 well format as per the procedure of the manufacturer (Cayman Chemical, Ann Arbor, USA).

MCF-7 = assay: DTP human tumor cell line one-dose prescreen, MCF-7; format: cell-based; conditions: MCF7, 48 hours, Alamar Blue, test/control, read-out: Percentage growth Breast MCF-7
Description: (§1) DTP Human Tumor Cell Line Screen
(§2) Methodology of the In Vitro Cancer Screen
(§3) The current assay utilizes a 384 well plate format and fluorescent staining technologies resulting in greater screening capacity for testing of synthetic samples.
(§4) The cell lines of the cancer-screening panel are grown in RPMI 1640 medium containing 5% fetal bovine serum and 2 mM L-glutamine. For a typical screening experiment, cells are inoculated into 96 well microtiter plates in 100 μL. After cell inoculation, the microtiter plates are incubated at 37° C., 5% CO2, 95% air and 100% relative humidity for 24 h prior to addition of experimental drugs. The cells are plated a densities of 5000 cells/well (MCF7), 1000 cells/well (NC1—H460), and 7500 cells/well (SF-268) to allow for varying doubling time of the cell lines. Each plate contains all three cell lines, a series of dilutions of standard agents, total kill wells and appropriate controls. Plates are incubated under standard conditions for 24 hours prior to addition of experimental compounds or extracts.
(§5) Addition of Experimental Agents (Pure Compounds)
(§6) Experimental compounds are solubilized in dimethyl sulfoxide (DMSO) at 400-times the desired maximum test concentration (maximum final DMSO concentration of 0.25%) and stored frozen. Compounds are then diluted with complete media with 0.1% gentamicin sulfate (5 μl of test sample in 100% DMSO is added to 565 μl of complete medium). 20 μl of this solution is then dispensed into test wells containing 50 μl of cell suspension to yield a test concentration of 1.00E-04M.
(§7) Two standard drugs, meaning that their activities against the cell lines are well documented, are tested against each cell line: NSC 19893 (5-FU) and NSC 123127 (Adriamycin).
(§8) After compound addition, plates are incubated at standard conditions for 48 hours, 10 μl/well Alamar Blue is added and the plates are incubated for an additional 4 hours. Fluorescence is measured using an excitation wavelength of 530 nm and an emission wavelength of 590 nm.
(§9) Calculation of Percent Test Cell Growth/Control (Untreated) Cell Growth (T/C)
(§10) Percent growth is calculated on a plate-by-plate basis for test wells relative to control wells. Percent Growth is expressed as the ratio of fluorescence of the test well to the average fluorescence of the control wells x 100.

SF-268 = assay: DTP human tumor cell line one-dose prescreen, SF-268; format: cell-based; conditions: 48 hours, Alamar Blue, test/control, read-out: Percentage growth CNS SF-268
Description: as §1, §2, §3, §4, §5, §6, §7, §8, §9, §10

NCI-H460 = assay: DTP human tumor cell line one-dose prescreen, NCI-H460; format: cell-based; conditions: 48 hours, Alamar Blue, test/control, read-out: Percentage growth Lung NCI-H460
Description: as §1, §2, §3, §4, §5, §6, §7, §8, §9, §10

Male Wistar rats [1] = assay: Rat carrageenan paw edema test; format: in vivo; conditions: 10 mg/kg body weight, oral, paw volume 3 hours after carrageenan, read-out: Rat Paw Edema model % inhibition
Description: Rat Carrageenan Paw Edema Test
(§11) The carrageenan paw edema test is performed as described by Winter et al (Proc. Soc. Exp. Biol. Med, 111, 544, 1962). Male Wistar rats are selected and the body weights are equivalent within each group. The rats are fasted for eighteen hours with free access to water. The rats are dosed orally with the test compound suspended in vehicle containing 0.5% methylcellulose. The control rats are administered the vehicle alone. After an hour, the rats are injected with 0.1 ml of 1% Carrageenan solution in 0.9% saline into the sub-plantar surface of the right hind paw. Paw volume is measured using water plethysmograph before and after 3 hours of carrageenan injection. The average of foot swelling in drug treated animals is compared with that of control animals. Anti-inflammatory activity is expressed as the percentage inhibition of edema compared with control group [Arzneim-Forsch/Drug Res., 43(I), 1, 44-50,1993; Ottemess and Bliven, Laboratory Models for Testing NSAIDs, In Non-Steroidal Anti-Inflammatory Drugs, (J. Lombardino, ed. 1985)]. In order to evaluate their role on the ulcer formation, the animals are sacrificed and the stomach is taken out and flushed with 1% formalin. The stomach is opened along the greater curvature. The haemorrhagic puncta and sulci are identified microscopically and images are captured. The stomach lesions are calculated.

COX-2 = molecular target: T1, COX-2 (Homo sapiens, UniProt P35354); assay: Human whole blood assay, COX-2 inhibition (PGE2 ELISA after LPS); format: cell-based; conditions: LPS 24 h
T1 construct: incubation of human blood with lipopolysaccharide (LPS), which induces COX-2 production in the blood; endogenous in cells; host or cells: fresh human whole blood from volunteers, treated with aspirin and then LPS
T1 sequence (P35354 18-604): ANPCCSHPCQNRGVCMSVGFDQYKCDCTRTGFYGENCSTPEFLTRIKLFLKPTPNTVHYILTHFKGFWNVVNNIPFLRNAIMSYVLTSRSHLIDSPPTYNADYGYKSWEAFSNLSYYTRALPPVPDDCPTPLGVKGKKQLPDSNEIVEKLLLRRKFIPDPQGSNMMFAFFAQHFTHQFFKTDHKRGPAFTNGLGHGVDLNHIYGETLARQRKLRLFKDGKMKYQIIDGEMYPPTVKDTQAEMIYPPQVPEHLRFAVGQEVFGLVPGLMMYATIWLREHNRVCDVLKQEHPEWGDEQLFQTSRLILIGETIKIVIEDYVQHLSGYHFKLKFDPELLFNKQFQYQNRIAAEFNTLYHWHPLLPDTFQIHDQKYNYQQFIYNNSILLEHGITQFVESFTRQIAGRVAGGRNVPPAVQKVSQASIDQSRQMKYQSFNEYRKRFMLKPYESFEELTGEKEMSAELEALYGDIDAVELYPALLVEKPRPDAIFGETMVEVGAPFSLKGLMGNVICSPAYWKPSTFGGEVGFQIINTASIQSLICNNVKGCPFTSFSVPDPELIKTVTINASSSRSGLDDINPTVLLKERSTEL
Description: In Vivo Evaluation of Cyclooxygenase-2 (COX-2) Inhibition Activity
The COX-2 inhibition activities of the compounds illustrated in the examples are determined by the following method.
Human whole blood provides a protein and cell rich milieu appropriate for the study of biochemical efficacy of anti-inflammatory compounds such as selective COX-2 inhibitors. […] This is correlating with the observation that COX-2 inhibitors have no effect on prostaglandin E2 (PGE2) production in normal blood. These inhibitors are active only after incubation of human blood with lipopolysaccharide (LPS), which induces COX-2 production in the blood.
Fresh blood is collected in tubes containing potassium EDTA by vein puncture from make volunteers. The subjects should have no apparent inflammatory conditions and not taken NSAIDs for at least 7 days prior to blood collection. Blood is treated with aspirin in vitro (10 μg/ml, at time zero) to inactivate COX-1, and then with LPS (10 μg/ml) along with test agents or vehicle. The blood is incubated for 24 h at 37° C., after which the tubes are centrifuged, the plasma is separated and stored at −80° C. (J. Pharmacol. Exp. Ther, 271, 1705, 1994; Proc. Natl. Acad. Sci. USA., 96, 7563, 1999). The plasma is assayed for PGE2 using Cayman ELISA kit as per the procedure outlined by the manufacturer (Cayman Chemicals, Ann Arbor, USA).

IL-6 = IL-6 production in LPS-stimulated human whole blood; format: cell-based; conditions: LPS 4 h
Description: This assay determines the effect of test compounds on the production of IL-6 from human whole blood. Compounds are tested for their ability to downregulate the production of IL-6 in activated whole blood. The test compounds are pre-incubated for 15 minutes at 37° C. and then stimulated with Lipopolysaccharide (Salmonella abortus equi, 1 μg/ml) for 4 h at 37° C. in 5% CO2. The levels of Interleukin-6 are estimated using Enzyme linked Immunosorbent assay performed in a 96 well format as per the procedure of the manufacturer (Cayman Chemical, Ann Arbor, USA).

Male Wistar rats [2] = assay: Gastroulcerogenic potential (stomach lesions after the paw edema test); format: in vivo; conditions: 10 mg/kg body weight, oral, rat
Description: as §11

| melting point [°C] | inhibition at 10 µM (COX-2; 10 μM) [%] | inhibition at 1 µM (COX-2) [%] | inhibition at 0.25 µM (COX-2; 0.25 μM) [%] | Compound | inhibition at 1 µM (TNF-α) [%] | activity at 100 µM (MCF-7) [%] | activity at 100 µM (SF-268) [%] | activity at 100 µM (NCI-H460) [%] | inhibition in vivo at 10 mg/kg (Male Wistar rats [1]) [%] | inhibition at 0.25 µM (IL-6) [%] | Gastroulcerogenic potential (% incidence of ulceration) (Male Wistar rats [2]) [%] | inhibition at 1 µM (IL-6) [%] | inhibition at 10 µM (IL-6; 10 μM) [%] | inhibition at 100 µM (IL-6; 100 μM) [%] |
| --- | --- | --- | --- | --- | --- | --- | --- | --- | --- | --- | --- | --- | --- | --- |
| 190 to 193 | – | – | – | CSc1nc(-c2cccnc2)n(-c2ccc(F)cc2)c(=O)c1C#N [Example 26, 5-cyano-1-(4-fluorophenyl)-4-(methylthio)-6-oxo-2-pyridin-3-yl-1,6-dihydropyrimidine] | 30.6 | 74 | 99 | 79 | – | – | – | – | – | – |
| 228 to 229 | 50.1 | – | – | CSc1ccc(-n2c(-c3ccc(C(F)(F)F)cc3)nc(SC)c(C#N)c2=O)cc1 [Example 4] | – | – | – | – | 38.5 | 48.4 | 25 | – | – | – |
| 219 to 221 | – | 40.5 | – | CSc1ccc(-c2nc(SC)c(C#N)c(=O)n2-c2ccc(F)cc2)cc1 [Example 5, 5-cyano-2-[(4-methylthio)phenyl]-4-(methylthio)-1-[4-fluorophenyl]-6-oxo-1,6-dihydropyrimidine] | – | – | – | – | 13.3 | 51 | 37.5 | – | – | – |
| 209 to 213 | – | – | 7.79 | CCOc1ccc(-n2c(-c3ccc(SC)cc3)nc(SC)c(C#N)c2=O)cc1 [Example 21, 5-cyano-1-(4-ethoxyphenyl)-4-(methylthio)-2-[4-(methylthio)phenyl]-6-oxo-1,6-dihydropyrimidine] | 46.6 | 84 | 91 | 92 | – | – | – | 17.3 | – | – |
| 180 to 181 | – | – | – | CSc1ccc(-c2nc(SC)c(C#N)c(=O)n2-c2ccc(C(C)C)cc2)cc1 [Example 9, 5-cyano-1-(4-isopropylphenyl)-4-(methylthio)-2-[4-(methylthio)phenyl]-6-oxo-1,6-dihydropyrimidine] | – | – | – | – | 37.2 | 31.1 | 0 | – | – | – |
| 158 to 161 | – | 14.9 | – | CSc1ccc(-n2c(-c3ccccn3)nc(SC)c(C#N)c2=O)cc1 [Example 30, 5-cyano-4-(methylthio)-1-[4-(methylthio)phenyl]-6-oxo-2-pyridin-2-yl-1,6-dihydropyrimidine] | – | 38 | 86 | 27 | – | – | – | – | – | – |
| 204 to 207 | – | 53.4 | – | CSc1ccc(-n2c(-c3ccc(F)cc3)nc(SC)c(C#N)c2=O)cc1 [Example 2, 5-cyano-2-(4-fluorophenyl)-4-(methylthio)-1-[4-(methylthio)phenyl]-6-oxo-1,6-dihydropyrimidine] | – | – | – | – | 39 | 45 | 25 | – | – | – |
| 153 to 155 | – | – | – | CCOC(=O)c1c(SC)nc(-c2ccc(SC)cc2)n(-c2ccc(C)cc2)c1=O [Example 41, ethyl 1-(4-methylphenyl)-4-(methylthio)-2-[4-(methylthio)phenyl]-6-oxo-1,6-dihydropyrimidine-5-carboxylate] | – | 85 | 89 | 86 | – | – | – | – | 21.9 | – |
| 204 to 205 | – | – | – | CSc1ccc(-n2c(-c3ccccc3)nc(SC)c(C#N)c2=O)cc1 [Example 3, 5-cyano-2-phenyl-4-(methylthio)-1-[4-(methylthio)phenyl]-6-oxo-1,6-dihydropyrimidine] | – | 82 | 90 | 30 | – | 11.3 | – | – | – | – |
| 203 to 205 | – | – | – | CSc1ccc(-c2nc(SC)c(C#N)c(=O)n2-c2ccc(Cl)cc2)cc1 [Example 18, 1-(4-chlorophenyl)-5-cyano-4-(methylthio)-2-[4-(methylthio)phenyl]-6-oxo-1,6-dihydropyrimidine] | 35.7 | 89 | 86 | 98 | – | – | – | – | – | 44.8 |
| 173 to 175 | – | 40.1 | – | CSc1ccc(-c2nc(SC)c(C(=O)O)c(=O)n2-c2ccc(C)cc2)cc1 [Example 8, 5-carboxy-2-[(4-methylthio)phenyl]-4-(methylthio)-1-(4-methylphenyl)-6-oxo-1,6-dihydropyrimidine] | – | 77 | 89 | 51 | – | – | – | 69.4 | – | – |
